Active and inactive are the calls of the source. The calls are words filed in the database; no cut-off is given here.
Assays:
[1] = (§1) Cytotoxicity against HEK293 cells assessed as cell growth inhibition measured after 48 hrs by MTT assay; type: toxicity, cell-based, Homo sapiens; settings: human, HEK293 cells
LNCaP C4-2 [2] = assay: Anticancer activity against human LNCaP C4-2 cells assessed as cell growth inhibition measured after 48 hrs by MTT assay; type: functional, cell-based; settings: LNCaP C4-2, 48 h
MCF7 = assay: Anticancer activity against human MCF7 cells assessed as cell growth inhibition measured after 48 hrs by MTT assay; type: functional, cell-based; settings: MCF7, 48 h
CWR22R = assay: Anticancer activity against human 22Rv1 cells assessed as cell growth inhibition measured after 48 hrs by MTT assay; type: functional, cell-based; settings: 22Rv1, 48 h
Cell membrane [3] = assay: Induction of mitochondrial membrane depolarization in human LNCaP C4-2 cells at 1 ug/ml measured after 48 hrs by JC-1 staining based fluorescence microscopic analysis; type: subcellular; settings: dose 1.0 µg/ml
Tubulin (Homo sapiens) [4] = target: T1, Tubulin (Homo sapiens) (UniProt P68371+Q9H4B7+P0DPH7+P68366+Q13509+Q71U36+P04350+Q3ZCM7+P07437+P68363+Q9BQE3+Q6PEY2+Q13885+Q9BVA1+Q9BUF5); assay: Induction of tubulin depolymerization in human 22Rv1 cells assessed as decrease in polymerized tubulin level at 20 uM measured after 24 hrs by Bradford assay relative to control; type: cell-based; parameters: scale not given: the % may be the effect or the level left
LNCaP C4-2 [5] = assay: Induction of cell death in human LNCaP C4-2 cells assessed as red fluorescence at 10 uM incubated for 48 hrs by ethidium bromide/acridine orange staining based fluorescent microscopic analysis; type: functional
PC-3 = assay: Anticancer activity against human PC-3 cells assessed as cell growth inhibition measured after 48 hrs by MTT assay; type: functional, cell-based; settings: PC-3, 48 h
Cell membrane [6] = assay: Induction of mitochondrial membrane depolarization in human LNCaP C4-2 cells at 10 uM measured after 48 hrs by JC-1 staining based fluorescence microscopic analysis; type: subcellular
LNCaP C4-2 [7] = assay: Inhibition of cell migration in human LNCaP C4-2 cells assessed as reduction in cell motility at 10 uM incubated for 12 to 24 hrs by inverted microscopy based scratch wound healing assay; type: functional; settings: time 12-24 hrs
LNCaP C4-2 [8] = assay: Induction of cytokinesis defect in human LNCaP C4-2 cells at 10 uM measured after 48 hrs by DAPI staining based fluorescence imaging analysis; type: functional, cell-based
LNCaP C4-2 [9] = assay: Induction of apoptosis in human LNCaP C4-2 cells assessed as increase in p53 level at 10 uM measured after 48 hrs by Western blot analysis; type: functional, cell-based
LNCaP C4-2 [10] = assay: Induction of ROS accumulation in human LNCaP C4-2 cells at 10 uM measured after 48 hrs by H2DCFDA dye based inverted fluorescent microscopic analysis; type: functional, cell-based
LNCaP C4-2 [11] = assay: Inhibition of colony formation in human LNCaP C4-2 cells assessed as decrease in colony number at 10 uM measured after 10 days by crystal violet staining based assay; type: functional, cell-based; settings: time 10.0 day
LNCaP C4-2 [12] = assay: Induction of apoptosis in human LNCaP C4-2 cells assessed as increase in c-Jun level at 10 uM measured after 48 hrs by Western blot analysis; type: functional, cell-based
Tubulin (Homo sapiens) [13] = target: T1, Tubulin (Homo sapiens); assay: Induction of tubulin depolymerization in human LNCaP C4-2 cells assessed as tubulin condensation towards nucleus at 10 uM measured after 48 hrs by fluorescence microscopic analysis; type: cell-based
Tubulin (Homo sapiens) [14] = target: T1, Tubulin (Homo sapiens); assay: Induction of tubulin depolymerization in human LNCaP C4-2 cells assessed as shrinkage of tubulin at 10 uM measured after 48 hrs by fluorescence microscopic analysis; type: cell-based
HEK293 = assay: as §1; type: toxicity, cell-based, Homo sapiens; settings: hek293

IC50 (LNCaP C4-2 [2]) | IC50 (MCF7) | IC50 (PC-3) | SMILES | IC50 (CWR22R) | IC50 (HEK293) | other results
2.18 µM | 2 µM |  | CS(=O)(=Nc1cccc(C(F)(F)F)c1)c1c[nH]c2ccccc12 (configuration not stated) | > 40 µM |  | IC50 at 48 h [1]: 40 µM
8.2 µM | 1.7 µM | 3.51 µM | COc1ccc(N=S(C)(=O)c2c[nH]c3cc(F)ccc23)cc1 (configuration not stated) | 1.91 µM |  | Activity (Tubulin (Homo sapiens) [4]): 13%; Activity (LNCaP C4-2 [5]): Active; Activity (Cell membrane [6]): Active; inhibition (LNCaP C4-2 [7]): Active; Activity (LNCaP C4-2 [8]): Active; Activity (LNCaP C4-2 [9]): Active; Activity (LNCaP C4-2 [10]): Active; inhibition (LNCaP C4-2 [11]): Active; Activity (LNCaP C4-2 [12]): Active; IC50 at 48 h [1]: > 40 µM; Activity (Tubulin (Homo sapiens) [13]): Active; Activity (Tubulin (Homo sapiens) [14]): Active
1.95 µM | > 40 µM | 17.1 µM | COc1ccc(N=S(C)(=O)c2c[nH]c3ccccc23)cc1 (configuration not stated) | 3.31 µM | > 40 µM | 
8.9 µM | 10 µM | > 40 µM | CS(=O)(=Nc1ccccc1)c1c[nH]c2ccccc12 (configuration not stated) | > 40 µM | > 40 µM | 
> 40 µM | 38.8 µM | > 40 µM | COc1ccc2[nH]cc(S(C)(=O)=Nc3cc(OC)c(OC)c(OC)c3)c2c1 (configuration not stated) | 2.68 µM | > 40 µM | 
10 µM | 40 µM | 21.7 µM | COc1cc(N=S(C)(=O)c2c[nH]c3ccccc23)cc(OC)c1OC (configuration not stated) | > 40 µM | > 40 µM | 
1.9 µM | > 40 µM | 14.4 µM | CS(=O)(=Nc1ccc(F)c(F)c1)c1c[nH]c2ccccc12 (configuration not stated) | 40 µM | > 40 µM | 

Second part, the compound before the results:

SMILES | IC50 (LNCaP C4-2 [2]) | IC50 (MCF7) | IC50 (PC-3) | IC50 (CWR22R) | IC50 (HEK293) | other results
COc1ccc(C[C@H](N)C(=O)N[C@H]2[C@@H](O)[C@H](n3cnc4c(N(C)C)ncnc43)O[C@@H]2CO)cc1 |  |  |  |  |  | Activity (Cell membrane [3]): Active
COc1ccc(N=S(C)(=O)c2c[nH]c3ccc(OC)cc23)cc1 (configuration not stated) | 40 µM | > 40 µM | 12.2 µM | 2.76 µM | > 40 µM | 
COc1ccc(N=S(C)(=O)c2c[nH]c3ccc(Br)cc23)cc1 (configuration not stated) |  | 1.28 µM |  |  |  | IC50 at 48 h [1]: > 40 µM
COc1cc(N=S(C)(=O)c2cn(Cc3ccc(Cl)cc3)c3ccccc23)cc(OC)c1OC (configuration not stated) | 40 µM |  | > 40 µM | > 40 µM | > 40 µM | 
Cc1ccc(N=S(C)(=O)c2c[nH]c3ccccc23)cc1 (configuration not stated) | 2.3 µM | 1.6 µM | > 40 µM | > 40 µM |  | IC50 at 48 h [1]: 40 µM
CS(=O)(=Nc1ccc(F)cc1)c1c[nH]c2ccccc12 (configuration not stated) | 3.7 µM | 40 µM | > 40 µM | 40 µM | > 40 µM | 
CS(=O)(=Nc1ccc(Br)cc1)c1c[nH]c2ccccc12 (configuration not stated) | > 40 µM | > 40 µM | 11.1 µM | > 40 µM | > 40 µM | 

From ChEMBL document CHEMBL5365455, “Design, synthesis and anticancer activity of N-aryl indolylsulfoximines: Identification of potent and selective anticancer agents” (Bioorg Med Chem, 2023)
